According to patent US20220054532A1, “VETERINARY COMPOSITIONS AND METHODS OF USE THEREFOR” (priority 2019, published 2022):

Experiments:
Type in all cases: in vivo
[1] = tested on: cats suffering from joint inflammation; assay: Example 4: joint inflammation, thermal imaging (feline); details: over the inflamed joint, 60 days BID
Source text: (§1) This example examines the ability of embodiments of the invention versus Cosequin® to treat joint inflammation.
The first patient group is twenty dogs suffering from joint inflammation. The second patient group is twenty cats suffering from joint inflammation. The third patient group is twenty horses suffering from joint inflammation. Each patient group is broken into five groups of four animals. The first groups receive Cosequin® as the sole active agent; the second groups receive a composition comprising HMW HA as the sole active agent; the third groups receive a composition comprising CBD as the sole active agent; the fourth groups receive a composition comprising HMW HA and CBD as the active agents; and the fifth groups receive a composition comprising HMW HA, CBD, Boswellia, and superoxide dismutase (“SOD”) as the active agents.
(§2) Each composition is administered for a period of sixty (60) days, BID. Efficacy is determined by a decrease in body temperature over the inflamed joint, as measured by thermal imaging (e.g., via Digatherm device). Thermal imaging is performed on days 0 (“Initial Score”), 15, 30, 45, and 60 (“Final Score”) of treatment.
The following feline scores are observed and the results depicted in FIG. 4b: […]

[2] = tested on: dogs suffering behavior aberrations and/or anxiety; assay: Example 13: behavior aberrations and anxiety, C-BARQ (canine, CBD Complex); details: C-BARQ day 0 vs 60, SID, 0 (no improvement) to 3 (marked improvement)
Source text: This example examines the ability of embodiments of the invention versus Clomicalm® to reduce behavior aberrations and anxiety.
The first patient group is twenty dogs suffering behavior aberrations and/or anxiety, as determined by the canine behavioral assessment and research questionnaire (“C-BARQ”). […] The second patient group is twenty cats suffering behavior aberrations and/or anxiety, as determined by the feline behavioral assessment and research questionnaire (“Fe-BARQ”).
Each group is broken into five groups of four animals. The first group receives Clomicalm® as the sole active agent; the second group receives a composition comprising HMW HA as the sole active agent; the third group receives a composition comprising CBD as the sole active agent; the fourth group receives a composition comprising HMW HA and CBD Complex as the active agents; and the fifth group receives a composition comprising HMW HA, CBD Complex, valerian root, and scutillaria as the active agents.
Each composition is administered for a period of sixty (60) days, once a day (“SID”). Owners complete the species-appropriate C-BARQ or Fe-BARQ on days 0 and 60 of treatment. The results from the overall questionnaire are averaged and characterized as no improvement (score of 0), mild improvement (score of 1), moderate improvement (score of 2), or marked improvement (score of 3).

[3] = tested on: cats suffering from GI-specific inflammation; assay: Example 11: GI-specific inflammation, owner-rated symptom reduction; details: species not given, symptom reduction score 0 to 4; for Final Score: after 28 days BID
Source text: (§3) This example examines the ability of embodiments of the invention versus Pepcid® to treat unwanted GI-specific inflammation characterized by gastritis, reflux, vomiting, diarrhea, and inappetence.
(§4) The first patient group is twenty dogs suffering from GI-specific inflammation. The second patient group is twenty cats suffering from GI-specific inflammation. Each patient group is broken into five groups of four animals. The first groups receive Pepcid® as the sole active agent; the second groups receive a composition comprising HMW HA as the sole active agent; the third groups receive a composition comprising CBD as the sole active agent; the fourth groups receive a composition comprising HMW HA and CBD Complex as the active agents; and the fifth groups receive a composition comprising HMW HA, CBD Complex, and glutathione as the active agents.
(§5) Each composition is administered for a period of twenty-eight (28) days, BID. The owner observes potential reduction of symptoms at the end of treatment and rates the reduction as no reduction (score of 0), mild reduction (score of 1), moderate reduction (score of 2), significant reduction (score of 3), or resolution of symptoms (score of 4).

[4] = tested on: cats suffering from GI-specific inflammation; assay: Example 3: GI-specific inflammation, owner-rated symptom reduction (feline); details: symptom reduction score 0 (no reduction) to 4 (resolution of symptoms); for Final Score: after 28 days BID
Source text: as §3
as §4, with “CBD” for “CBD Complex”, “CBD,” for “CBD Complex,”
as §5
The following feline scores are observed and the results depicted in FIG. 3b: […]

[5] = tested on: dogs suffering from joint inflammation; assay: Example 12: joint inflammation, thermal imaging (canine, CBD Complex); details: over the inflamed joint, 60 days BID
Source text: as §1
The first patient group is twenty dogs suffering from joint inflammation. The second patient group is twenty cats suffering from joint inflammation. The third patient group is twenty horses suffering from joint inflammation. Each patient group is broken into five groups of four animals. The first groups receive Cosequin® as the sole active agent; the second groups receive a composition comprising HMW HA as the sole active agent; the third groups receive a composition comprising CBD as the sole active agent; the fourth groups receive a composition comprising HMW HA and CBD Complex as the active agents; and the fifth groups receive a composition comprising HMW HA, CBD Complex, Boswellia, and superoxide dismutase (“SOD”) as the active agents.
as §2
The following canine scores are observed and the results depicted in FIG. 12a: […]

[6] = tested on: dogs with a history of severe, chronic skin issues, atopy, pruritis, yeast overgrowth, and/or infection; assay: Example 8: skin conditions (itch score) and side effects in dogs; set-up: Average Side Effect Score: scale not given here; details: for Average Side Effect Score: dogs with skin conditions, 60 days BID; for Initial Itch Score / Final Itch Score: itch scale 0 (no itching) to 10 (extremely severe); for Initial Itch Score: day 0; for Final Itch Score: day 60, BID
Source text: This example examines the ability of embodiments of the invention versus prednisone to treat skin conditions.
The patient group is twenty-four dogs with a history of severe, chronic skin issues, atopy, pruritis, yeast overgrowth, and/or infection, as diagnosed by their referring veterinarian. The patient group is broken into six groups of four animals. The first group receives prednisone as the sole active agent; the second group receives a composition comprising prednisone and HMW HA as the active agents; the third group receives a composition comprising HMW HA as the sole active agent; the fourth group receives a composition comprising CBD as the sole active agent; the fifth group receives a composition comprising HMW HA and CBD as the active agents; and the sixth group receives a composition comprising HMW HA, CBD, quercetin, and nettles as the active agents.
Each composition is administered for a period of sixty (60) days, BID. Each dog is evaluated on days 0 (“Initial Score”), 20, 40, and 60 (“Final Score”) of treatment. The results are averaged and characterized on a scale of 0 (no itching—normal dog), 2 (very mild itching—only occasional episodes), 4 (mild itching), 6 (moderate itching—regular episodes), 8 (severe itching—prolonged episodes), to 10 (extremely severe itching—almost continuous).
The following scores are observed and the results depicted in FIG. 8: […]

Molecule	Reduction in Temperature (° F.) [1]	Improvement Score [2]	Final Score [3]	Initial Score [3]	Final Score [4]	Initial Score [4]	Reduction in Temperature (° F.) [5]	Average Side Effect Score [6]	Initial Itch Score [6]	Final Itch Score [6]
C=C(C)[C@@H]1CCC(C)=C[C@H]1c1c(O)cc(CCCCC)cc1O [CBD Alone, 2-[(1R,6R)-3-methyl-6-prop-1-en-2-ylcyclohex-2-en-1-yl]-5-pentylbenzene-1,3-diol]	2.0 ° F.	2	2	0	2	0	1.7 ° F.	.5	9	5
hyaluronic acid [HMW HA Alone]	2.3 ° F.	1	3	0	3	0	1.9 ° F.	4	9	7
